Results as given in patent US5962525A, “6,7-disubstituted-2-aminotetralines active as immunomodulators and pharmaceutical compositions containing same” (Sigma-Tau, priority 1990, dated 1999).
Like-named read-outs stand apart in the source and are kept apart here.

Tests used:
[1] = system: murine peritoneal exudate cells (PEC); test: "In vitro-ex vivo" effect on the phagocytic activity of exudate peritoneal cells (SRBC phagocytosis); design: species or system mouse (B6 D2 F1); details: 25 mg/kg/day i.p.
Method: Assessment of the "in vitro-ex vivo" effect of ST 557, ST 563, ST 564, ST 570, ST 608 and ST 626 on the phagocytic activity of exudate peritoneal cells (PEC)
Male B6 D2 F1 mice aged 6-8 weeks (5 animals each group) were used.
The compounds were administered i.p. (25 mg/kg/day), ST 557, ST 563 and ST 626 were also administered per os (100 mg/kg/day) from day -5 to day -1 (PEC harvesting at day 0).
The experimental procedure was substantially the same as that described by Williams et al., in "Methods in Immunology and Immunochemistry", Acad. Press. 5: 261 (1976).
In particular, 24 hours following the end of the treatment, PECs from each experimental group were harvested, pooled and their concentration was adjusted to 4×10^6 cells/ml.
To volumes of 250 μl of each PEC sample were added equal volumes of 0.4% SRBC (Sheep Red Blood Cells) opsonized with hyperimmune serum.
The samples (duplicate) were incubated for 1 hour and then subjected to hypotonic shock in order to remove the non-phagocytized SRBC. After restoring the osmolarity, the phagocytes were cytocentrifuged, stained with a differential dye and observed under the microscope.
The results were expressed as:
(a) percentage of cells that have phagocytized with respect to 100 phagocytizing cells;
(b) total number of phagocytized SRBC;
(c) average number of SRBC in each phagocyte.

[2] = Tolerability after oral or intravenous administration; design: species or system mouse (Swiss albino); details: mouse, in vivo, 7 days observation, read-out: Tolerability, dose
Method: The test was conducted in male Swiss albino mice weighing 22-24 g.
A group of animals (4 animals/dose) which had been kept fasting for 18 hours, were orally administered the compounds ST 557, ST 563, ST 564 and ST 570 dissolved in twice distilled water.
A further group of animals, which had free access to food and water, were administered intravenously the same compounds dissolved in saline it pH 7. All the animals were kept under observation for 7 days.

splenocytes = test: "In vitro-ex vivo" effect on the mytogen (PHA, ConA, LPS)-induced splenocyte proliferation in mice immunodepressed with cyclophosphamide; design: species or system mouse (B6 D2 F1); details: for S.I. (stimulation index): with respect to the immunodepressed controls; for AUC (area under curve): immunodepressed
Method: Assessment of the "in vitro-ex vivo" effect of ST 557, ST 563 ST 564 on the mytogen (PHA, ConA, LPS)-Induced splenocyte proliferation in mice Immunodepressed with cyclotohosphamide
Male B6 D2 F1 mice aged 7-9 weeks (5 mice per group) were used.
The immunosuppressor (cyclophosphamide) was administered i.p. at the dose of 100 mg/kg at day -5. The compounds were administered i.p. (25 mg/kg/day) and per os (100 mg/kg/day) from day -5 to day -1 (spleen excision at day 0).
Splenocyte proliferation was induced by three different mytogens: PHA and ConA active on T-lymphocytes, and LPS active on B-lymphocytes. Each mytogen was tested at three different concentrations (suboptimal, optimal and superoptimal) corresponding to 0.5, 4 and 6 mcg/ml/well for PHA; 0.5, 4 and 8 mcg/ml/well for ConA and 0.5, 150 and 500 mcg/ml/well for LPS.
The experimental procedure is identical to that described in test 4.
The results are expressed as both AUC (see test 4) and S.I. In order to assess the efficacy of the immunosuppressor and the activity of the tested compounds, S.I. has been determined both for the immunodepressed controls (with respect to the normal controls) and for the immunodepressed treated animals (with respect to the immunodepressed controls), respectively. [formula]

LD50, intravenous = details: mouse, in vivo, 0.9% saline
Method: LD50 was determined according to Carrol S. Weil's method, Biometrics, pages 249-263 (1952) in male Swiss albino mice weighing 22-24 g.
The various compounds dissolved in 0.9% saline were administered intravenously.

## COc1ccc(OCC(O)CNC2CCc3cc(OC)c(OC)cc3C2)cc1 (stereo not shown) [ST 564, 2-[(N-2-hydroxy-3-(4-methoxyphenoxy)propyl)amino]-6,7-dimethoxytetraline]
[1]
  Fagocytizing cells: 40.0%
  Total n° SRBC phagocytized: 126.6
[1]; average number of SRBC in each phagocyte
  SRBC per phagocytizing cell: 3.2
[2]; iv
  MTD at 168 h: > 20 mg/kg
[2]; po, os, fasting 18 hours
  MTD at 168 h: > 50 mg/kg
splenocytes; ConA, 25 mg/kg/day i.p.
  S.I. (stimulation index): 1.01
  AUC (area under curve): 514 ± 10 ×10^-3
splenocytes; ConA, 100 mg/kg/day os
  S.I. (stimulation index): 0.78
  AUC (area under curve): 577 ± 41 ×10^-3
splenocytes; LPS, 25 mg/kg/day i.p.
  S.I. (stimulation index): 2.74
  AUC (area under curve): 2533 ± 314 ×10^-3
splenocytes; LPS, 100 mg/kg/day os
  S.I. (stimulation index): 0.65
  AUC (area under curve): 3023 ± 257 ×10^-3
splenocytes; PHA, 25 mg/kg/day i.p.
  S.I. (stimulation index): 2.05
  AUC (area under curve): 205 ± 18 ×10^-3
LD50, intravenous
  LD50: 44.5 mg/kg
